Reference: PubChem BioAssay AID1963829 (Molecular Pharmacology Branch, DTP, NCI, 2024)

Test system: 935938-334-R-J1-PDC complex spheroid viability
Assay: Anticancer human tumor 935938-334-R-J1-PDC patient-derived small intestine adenocarcinoma cell line growth inhibition [POLQ]
Conditions: for IC50: curve of first compound; for viability, T/C: stronger effect = lower value
Summary of the method: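 Patient-derived tumour cells were co-cultured with HUVEC and mesenchymal stem cells as multicellular spheroids at 37 °C. They were treated with POLQ inhibitors (novobiocin, ART-558, RP6685) alone or combined with other agents. Top concentrations were at or near clinical Cmax (otherwise 10 microM; SN-38 at 1 microM), decreasing in half-log steps.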

[1] = second compound 0.0316 µM, first compound 0.0316 µM
[2] = second compound 0.0316 µM, first compound 0.1 µM
[3] = second compound 0.0316 µM, first compound 0.316 µM
[4] = second compound 0.0316 µM, first compound 1 µM
[5] = second compound 0.0316 µM, first compound 3.16 µM
[6] = second compound 0.0316 µM, first compound 10 µM
[7] = second compound 0.1 µM, first compound 0.0316 µM
[8] = second compound 0.1 µM, first compound 0.1 µM
[9] = second compound 0.1 µM, first compound 0.316 µM
[10] = second compound 0.1 µM, first compound 1 µM
[11] = second compound 0.1 µM, first compound 3.16 µM
[12] = second compound 0.1 µM, first compound 10 µM
[13] = second compound 0.316 µM, first compound 0.0316 µM
[14] = second compound 0.316 µM, first compound 0.1 µM
[15] = second compound 0.316 µM, first compound 0.316 µM
[16] = second compound 0.316 µM, first compound 1 µM
[17] = second compound 0.316 µM, first compound 3.16 µM
[18] = second compound 0.316 µM, first compound 10 µM
[19] = second compound 1 µM, first compound 0.0316 µM
[20] = second compound 1 µM, first compound 0.1 µM
[21] = second compound 1 µM, first compound 0.316 µM
[22] = second compound 1 µM, first compound 1 µM
[23] = second compound 1 µM, first compound 3.16 µM
[24] = second compound 1 µM, first compound 10 µM
[25] = second compound 3.16 µM, first compound 0.0316 µM
[26] = second compound 3.16 µM, first compound 0.1 µM
[27] = second compound 3.16 µM, first compound 0.316 µM
[28] = second compound 3.16 µM, first compound 1 µM
[29] = second compound 3.16 µM, first compound 3.16 µM
[30] = second compound 3.16 µM, first compound 10 µM
[31] = second compound 10 µM, first compound 0.0316 µM
[32] = second compound 10 µM, first compound 0.1 µM
[33] = second compound 10 µM, first compound 0.316 µM
[34] = second compound 10 µM, first compound 1 µM
[35] = second compound 10 µM, first compound 3.16 µM
[36] = second compound 10 µM, first compound 10 µM
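Also: spheroids exposed to drugs for seven days before viability read.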
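For viability, T/C in this document: 100% = DMSO vehicle control wells.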

CC(=O)O[C@H]1C(=O)[C@@]2(C)[C@H]([C@H](OC(=O)c3ccccc3)[C@]3(O)C[C@H](OC(=O)[C@H](O)[C@@H](NC(=O)c4ccccc4)c4ccccc4)C(C)=C1C3(C)C)[C@]1(OC(C)=O)CO[C@@H]1C[C@@H]2O + Nc1ccc(C#CCN(C(=O)Cc2ncc(C(F)(F)F)cc2C(F)(F)F)c2ccc(F)cc2)nn1
IC50 (second compound 0.0316 µM): < 0.00949 µM
IC50 (second compound 0.1 µM): < 0.00949 µM
IC50 (second compound 0.316 µM): < 0.00949 µM
IC50 (second compound 1 µM): < 0.00949 µM
IC50 (second compound 3.16 µM): < 0.00949 µM
IC50 (second compound 10 µM): < 0.00949 µM
viability, T/C (second compound 0.0316 µM, first compound 0.00949 µM): 44.6%
viability, T/C (second compound 0.0316 µM, first compound 0.03 µM): 17.6%
viability, T/C (second compound 0.0316 µM, first compound 0.0949 µM): 13.5%
viability, T/C (second compound 0.0316 µM, first compound 0.3 µM): 18.1%
viability, T/C (second compound 0.0316 µM, first compound 0.949 µM): 16.1%
viability, T/C (second compound 0.0316 µM, first compound 3 µM): 16.3%
viability, T/C (second compound 0.1 µM, first compound 0.00949 µM): 34%
viability, T/C (second compound 0.1 µM, first compound 0.03 µM): 18%
viability, T/C (second compound 0.1 µM, first compound 0.0949 µM): 17.1%
viability, T/C (second compound 0.1 µM, first compound 0.3 µM): 17.1%
viability, T/C (second compound 0.1 µM, first compound 0.949 µM): 17.8%
viability, T/C (second compound 0.1 µM, first compound 3 µM): 21.7%
viability, T/C (second compound 0.316 µM, first compound 0.00949 µM): 43%
viability, T/C (second compound 0.316 µM, first compound 0.03 µM): 18.5%
viability, T/C (second compound 0.316 µM, first compound 0.0949 µM): 14.1%
viability, T/C (second compound 0.316 µM, first compound 0.3 µM): 11.7%
viability, T/C (second compound 0.316 µM, first compound 0.949 µM): 15.3%
viability, T/C (second compound 0.316 µM, first compound 3 µM): 15.9%
viability, T/C (second compound 1 µM, first compound 0.00949 µM): 30%
viability, T/C (second compound 1 µM, first compound 0.03 µM): 21.3%
viability, T/C (second compound 1 µM, first compound 0.0949 µM): 17.1%
viability, T/C (second compound 1 µM, first compound 0.3 µM): 15.5%
viability, T/C (second compound 1 µM, first compound 0.949 µM): 14.3%
viability, T/C (second compound 1 µM, first compound 3 µM): 16.9%
viability, T/C (second compound 3.16 µM, first compound 0.00949 µM): 40.9%
viability, T/C (second compound 3.16 µM, first compound 0.03 µM): 18.5%
viability, T/C (second compound 3.16 µM, first compound 0.0949 µM): 16.3%
viability, T/C (second compound 3.16 µM, first compound 0.3 µM): 13.8%
viability, T/C (second compound 3.16 µM, first compound 0.949 µM): 18.4%
viability, T/C (second compound 3.16 µM, first compound 3 µM): 19.4%
viability, T/C (second compound 10 µM, first compound 0.00949 µM): 47.3%
viability, T/C (second compound 10 µM, first compound 0.03 µM): 18.7%
viability, T/C (second compound 10 µM, first compound 0.0949 µM): 16.7%
viability, T/C (second compound 10 µM, first compound 0.3 µM): 15.5%
viability, T/C (second compound 10 µM, first compound 0.949 µM): 15.8%
viability, T/C (second compound 10 µM, first compound 3 µM): 17.5%

COc1cc2cc(C(=O)CCC(=O)O)sc2cc1OC + Cc1cccc(N(C)C(=O)C2C(O)CCN2c2nc(C)cc(C(F)(F)F)c2C#N)c1
IC50 (second compound 0.0316 µM): > 10 µM
IC50 (second compound 0.1 µM): > 10 µM
IC50 (second compound 0.316 µM): > 10 µM
IC50 (second compound 1 µM): > 10 µM
IC50 (second compound 3.16 µM): > 10 µM
IC50 (second compound 10 µM): > 10 µM
viability, T/C [1]: 116%
viability, T/C [2]: 84.3%
viability, T/C [3]: 88.5%
viability, T/C [4]: 83.9%
viability, T/C [5]: 85.1%
viability, T/C [6]: 80.8%
viability, T/C [7]: 100%
viability, T/C [8]: 85.6%
viability, T/C [9]: 92.4%
viability, T/C [10]: 95.7%
viability, T/C [11]: 62.9%
viability, T/C [12]: 81.9%
viability, T/C [13]: 79.7%
viability, T/C [14]: 82.5%
viability, T/C [15]: 68.3%
viability, T/C [16]: 88.9%
viability, T/C [17]: 84.8%
viability, T/C [18]: 93.8%
viability, T/C [19]: 91.7%
viability, T/C [20]: 96.5%
viability, T/C [21]: 103%
viability, T/C [22]: 81.1%
viability, T/C [23]: 74%
viability, T/C [24]: 83.4%
viability, T/C [25]: 82.1%
viability, T/C [26]: 95.6%
viability, T/C [27]: 98.5%
viability, T/C [28]: 95.9%
viability, T/C [29]: 98.2%
viability, T/C [30]: 95.1%
viability, T/C [31]: 135%
viability, T/C [32]: 75.6%
viability, T/C [33]: 96.2%
viability, T/C [34]: 112%
viability, T/C [35]: 114%
viability, T/C [36]: 105%

C#Cc1c(F)ccc2cc(O)cc(-c3ncc4c(N5CC6CCC(C5)N6)nc(OCC56CCCN5CC(F)C6)nc4c3F)c12 (stereo unspecified) + Cc1cccc(N(C)C(=O)C2C(O)CCN2c2nc(C)cc(C(F)(F)F)c2C#N)c1
IC50 (second compound 0.0316 µM): 2.41 µM
IC50 (second compound 0.1 µM): 3.39 µM
IC50 (second compound 0.316 µM): 1.49 µM
IC50 (second compound 1 µM): 1.73 µM
IC50 (second compound 3.16 µM): 2.02 µM
IC50 (second compound 10 µM): 0.576 µM
viability, T/C [1]: 89.8%
viability, T/C [2]: 97.8%
viability, T/C [3]: 65.1%
viability, T/C [4]: 75.2%
viability, T/C [5]: 40.2%
viability, T/C [6]: 29.7%
viability, T/C [7]: 80.3%
viability, T/C [8]: 75.2%
viability, T/C [9]: 62%
viability, T/C [10]: 60.9%
viability, T/C [11]: 53.4%
viability, T/C [12]: 39.4%
viability, T/C [13]: 97.5%
viability, T/C [14]: 88.9%
viability, T/C [15]: 87.6%
viability, T/C [16]: 54.6%
viability, T/C [17]: 41.9%
viability, T/C [18]: 33.4%
viability, T/C [19]: 92%
viability, T/C [20]: 75%
viability, T/C [21]: 64.3%
viability, T/C [22]: 64.8%
viability, T/C [23]: 36.5%
viability, T/C [24]: 35.5%
viability, T/C [25]: 72.5%
viability, T/C [26]: 81.1%
viability, T/C [27]: 54.4%
viability, T/C [28]: 70.7%
viability, T/C [29]: 37.3%
viability, T/C [30]: 31.8%
viability, T/C [31]: 85.4%
viability, T/C [32]: 73.7%
viability, T/C [33]: 61.5%
viability, T/C [34]: 38.6%
viability, T/C [35]: 36.6%
viability, T/C [36]: 29.6%
